Results: ChEMBL document CHEMBL5126517, “Structure-Activity Relationship in the Leucettine Family of Kinase Inhibitors” (J Med Chem, 2022)
pEC50, pIC50: −log10 of the molar value.

Assays:
[1] = Neurotoxicity against mouse HT-22 cells assessed as cell survival at 20 uM treated for 24 hrs by MTS assay; type: toxicity, cell-based; conditions: ht-22, 24 h
Casein kinase 2 = Casein kinase 2 (Homo sapiens, UniProt P67870+P68400+P19784+Q8NEV1); assay: Inhibition of human recombinant CK2 using RRRDDDSDDD peptide as substrate incubated for 30 mins in presence of ATP by scintillation counting method; type: protein assay
[2] = target: Dual specificity protein kinase CLK2 (Mus musculus, UniProt O35491); assay: Inhibition of mouse recombinant GST-fused CLK2 expressed in Escherichia coli using GRSRSRSRSRSR peptide as substrate incubated for 30 mins in presence of ATP by scintillation counting method
Sequence of Dual specificity protein kinase CLK2 (O35491 whole entry, the tested form may be a part): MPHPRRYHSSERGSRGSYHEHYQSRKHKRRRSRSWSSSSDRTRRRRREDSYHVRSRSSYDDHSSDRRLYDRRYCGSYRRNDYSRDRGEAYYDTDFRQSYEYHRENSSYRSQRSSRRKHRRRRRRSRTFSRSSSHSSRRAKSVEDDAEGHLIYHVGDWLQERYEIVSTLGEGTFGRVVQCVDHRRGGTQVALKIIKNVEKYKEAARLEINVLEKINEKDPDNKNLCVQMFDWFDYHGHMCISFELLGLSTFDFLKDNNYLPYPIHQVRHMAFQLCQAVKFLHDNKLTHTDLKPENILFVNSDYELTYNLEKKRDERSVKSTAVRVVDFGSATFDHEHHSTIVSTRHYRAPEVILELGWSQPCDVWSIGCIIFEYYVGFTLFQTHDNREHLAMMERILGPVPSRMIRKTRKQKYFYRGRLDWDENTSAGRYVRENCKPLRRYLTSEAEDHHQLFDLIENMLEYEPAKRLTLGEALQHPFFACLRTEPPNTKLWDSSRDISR

U2OS = assay: Induction of PI3K/mTor-dependent autophagy in human U2OS cells assessed as number of LC3 foci per cell at 10 uM measured after 4 hrs; type: cell-based; conditions: filed as activator
[3] = target: Dual specificity protein kinase CLK4 (Mus musculus, UniProt O35493); assay: Inhibition of GST-fused mouse recombinant CLK4 expressed in Escherichia coli using GRSRSRSRSRSR peptide as substrate incubated for 30 mins in presence of ATP by scintillation counting method
Sequence of Dual specificity protein kinase CLK4 (O35493 whole entry, the tested form may be a part): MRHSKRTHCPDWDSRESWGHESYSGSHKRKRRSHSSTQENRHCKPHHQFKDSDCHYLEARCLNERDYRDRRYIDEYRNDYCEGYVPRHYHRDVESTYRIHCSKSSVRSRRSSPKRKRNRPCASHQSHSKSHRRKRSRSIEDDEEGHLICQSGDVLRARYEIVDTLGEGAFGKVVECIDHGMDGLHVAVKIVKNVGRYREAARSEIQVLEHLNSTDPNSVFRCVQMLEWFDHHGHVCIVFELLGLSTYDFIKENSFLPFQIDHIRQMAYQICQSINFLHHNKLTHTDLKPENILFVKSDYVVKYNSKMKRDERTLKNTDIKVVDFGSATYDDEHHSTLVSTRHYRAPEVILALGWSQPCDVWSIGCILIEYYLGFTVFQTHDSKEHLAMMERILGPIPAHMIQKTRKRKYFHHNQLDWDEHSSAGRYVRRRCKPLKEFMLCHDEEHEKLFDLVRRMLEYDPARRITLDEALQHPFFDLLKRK

HT-22 [4] = assay: Modulation of CLK1 pre-mRNA splicing in mouse HT-22 cells assessed as inclusion of CLK1 exon 4 by measuring change in threshold cycle at 10 uM measured after 4 hrs by real time PCR analysis; type: cell-based; conditions: filed as modulator
[5] = target: Glycogen synthase kinase-3 (Sus scrofa, UniProt B2LUN4+I6LNT8); assay: Inhibition of porcine brain GSK-3alpha/beta using YRRAAVPPSPSLSRHSSPHQpSEDEEE as substrate incubated for 30 mins in presence of ATP by scintillation counting method; type: tissue-based
[6] = target: T1, Dual specificity tyrosine-phosphorylation-regulated kinase 1A (Homo sapiens, UniProt Q13627); assay: Inhibition of GST-fused human recombinant DYRK1A expressed in Escherichia coli using GRSRSRSRSRSR peptide as substrate incubated for 30 mins in presence of ATP by scintillation counting method
[7] = Neurotoxicity against mouse HT-22 cells assessed as cell survival treated for 24 hrs by MTS assay; type: toxicity, cell-based
[8] = target: T2, Dual specificity tyrosine-phosphorylation-regulated kinase 2 (Homo sapiens, UniProt Q92630); assay: Inhibition of GST-fused human recombinant DYRK2 expressed in Escherichia coli using GRSRSRSRSRSR peptide as substrate incubated for 30 mins in presence of ATP by scintillation counting method
T2 sequence (Q92630 whole entry): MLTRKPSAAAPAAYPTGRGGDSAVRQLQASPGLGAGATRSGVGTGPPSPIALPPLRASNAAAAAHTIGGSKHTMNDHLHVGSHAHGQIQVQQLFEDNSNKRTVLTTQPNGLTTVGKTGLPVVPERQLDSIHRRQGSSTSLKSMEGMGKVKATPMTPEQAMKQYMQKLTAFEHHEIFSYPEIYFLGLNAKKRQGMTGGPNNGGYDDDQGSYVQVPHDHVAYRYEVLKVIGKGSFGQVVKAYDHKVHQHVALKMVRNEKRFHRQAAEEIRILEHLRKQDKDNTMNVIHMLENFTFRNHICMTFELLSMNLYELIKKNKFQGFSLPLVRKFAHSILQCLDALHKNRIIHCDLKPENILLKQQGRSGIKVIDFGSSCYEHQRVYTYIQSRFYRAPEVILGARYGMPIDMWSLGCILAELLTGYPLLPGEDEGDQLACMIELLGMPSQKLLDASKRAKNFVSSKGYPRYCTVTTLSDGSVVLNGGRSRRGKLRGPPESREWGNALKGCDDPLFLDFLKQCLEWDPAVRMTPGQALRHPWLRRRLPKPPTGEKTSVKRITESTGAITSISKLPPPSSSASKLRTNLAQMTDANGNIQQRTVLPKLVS

[9] = target: Dual specificity tyrosine-phosphorylation-regulated kinase 1B (Homo sapiens, UniProt Q9Y463)
Sequence of Dual specificity tyrosine-phosphorylation-regulated kinase 1B (Q9Y463 whole entry): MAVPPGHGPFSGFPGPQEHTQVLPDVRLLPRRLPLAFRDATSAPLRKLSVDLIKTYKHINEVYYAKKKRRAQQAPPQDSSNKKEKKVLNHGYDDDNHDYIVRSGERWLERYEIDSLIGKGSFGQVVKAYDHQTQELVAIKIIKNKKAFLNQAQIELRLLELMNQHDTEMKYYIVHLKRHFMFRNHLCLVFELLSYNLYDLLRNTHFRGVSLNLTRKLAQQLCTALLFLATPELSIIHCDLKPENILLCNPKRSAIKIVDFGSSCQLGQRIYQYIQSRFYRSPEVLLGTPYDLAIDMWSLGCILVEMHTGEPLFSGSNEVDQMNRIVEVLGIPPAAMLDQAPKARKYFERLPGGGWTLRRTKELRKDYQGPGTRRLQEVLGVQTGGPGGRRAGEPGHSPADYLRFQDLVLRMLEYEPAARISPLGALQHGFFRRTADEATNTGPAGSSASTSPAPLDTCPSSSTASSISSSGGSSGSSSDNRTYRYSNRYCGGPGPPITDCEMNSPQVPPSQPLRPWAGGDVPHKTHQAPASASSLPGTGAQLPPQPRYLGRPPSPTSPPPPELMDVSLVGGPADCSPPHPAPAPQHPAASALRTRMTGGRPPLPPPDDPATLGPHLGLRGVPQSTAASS

[10] = target: Serine/threonine-protein kinase pim-1 (Homo sapiens, UniProt P11309); assay: Inhibition of human recombinant Pim1 expressed in Escherichia coli using histone H1 as substrate incubated for 30 mins in presence of ATP by scintillation counting method
Sequence of Serine/threonine-protein kinase pim-1 (P11309 whole entry): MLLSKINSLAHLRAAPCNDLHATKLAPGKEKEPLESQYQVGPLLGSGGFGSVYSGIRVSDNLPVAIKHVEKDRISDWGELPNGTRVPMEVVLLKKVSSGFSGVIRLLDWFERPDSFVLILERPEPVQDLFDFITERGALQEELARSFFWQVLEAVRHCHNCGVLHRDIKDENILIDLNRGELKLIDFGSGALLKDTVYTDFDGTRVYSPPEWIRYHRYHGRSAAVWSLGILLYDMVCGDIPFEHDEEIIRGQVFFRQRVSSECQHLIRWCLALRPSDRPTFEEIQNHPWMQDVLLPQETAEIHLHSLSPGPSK

Cannabinoid receptor 1 [11] = target: T3, Cannabinoid receptor 1 (Homo sapiens, UniProt P21554); assay: Antagonist activity at CP-55940-activated CB1 receptor (unknown origin) at 10 uM by beta-arrestin assay relative to control; type: functional; design: scale not given: the % may be the effect or the level left
T3 sequence (P21554 whole entry, the tested form may be a part): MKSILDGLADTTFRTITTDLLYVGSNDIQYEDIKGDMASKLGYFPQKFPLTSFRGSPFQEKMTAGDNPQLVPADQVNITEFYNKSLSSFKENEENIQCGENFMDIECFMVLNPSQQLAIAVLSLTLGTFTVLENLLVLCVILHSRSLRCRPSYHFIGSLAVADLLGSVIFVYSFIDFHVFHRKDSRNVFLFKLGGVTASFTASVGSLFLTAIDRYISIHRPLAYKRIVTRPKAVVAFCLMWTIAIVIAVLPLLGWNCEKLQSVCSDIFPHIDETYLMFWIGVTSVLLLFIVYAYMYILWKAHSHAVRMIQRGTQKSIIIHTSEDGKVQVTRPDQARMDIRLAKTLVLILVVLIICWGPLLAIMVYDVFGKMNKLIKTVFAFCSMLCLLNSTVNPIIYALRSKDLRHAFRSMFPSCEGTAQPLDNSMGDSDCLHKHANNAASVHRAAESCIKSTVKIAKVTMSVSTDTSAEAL

[12] = target: Dual specificity protein kinase CLK3 (Mus musculus, UniProt O35492); assay: Inhibition of GST-fused mouse recombinant CLK3 expressed in Escherichia coli using GRSRSRSRSRSR peptide as substrate incubated for 30 mins in presence of ATP by scintillation counting method
Sequence of Dual specificity protein kinase CLK3 (O35492 whole entry, the tested form may be a part): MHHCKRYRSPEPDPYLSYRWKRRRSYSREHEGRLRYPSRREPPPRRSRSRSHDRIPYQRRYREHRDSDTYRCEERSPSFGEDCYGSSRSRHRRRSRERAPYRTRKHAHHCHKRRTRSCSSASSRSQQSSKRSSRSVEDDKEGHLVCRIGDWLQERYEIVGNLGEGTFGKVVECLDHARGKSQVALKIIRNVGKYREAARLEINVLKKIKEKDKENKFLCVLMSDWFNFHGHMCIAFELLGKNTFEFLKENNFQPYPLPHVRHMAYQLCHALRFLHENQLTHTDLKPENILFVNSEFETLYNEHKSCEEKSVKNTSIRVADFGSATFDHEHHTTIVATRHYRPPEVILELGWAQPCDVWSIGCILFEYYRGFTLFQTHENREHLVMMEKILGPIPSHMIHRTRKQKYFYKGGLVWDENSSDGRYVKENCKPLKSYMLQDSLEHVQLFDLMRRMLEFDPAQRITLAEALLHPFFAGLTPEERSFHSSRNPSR

[13] = target: Dual specificity protein kinase CLK1 (Mus musculus, UniProt P22518); assay: Inhibition of GST-fused mouse recombinant CLK1 expressed in Escherichia coli using GRSRSRSRSRSR peptide as substrate incubated for 30 mins in presence of ATP by scintillation counting method
Sequence of Dual specificity protein kinase CLK1 (P22518 whole entry, the tested form may be a part): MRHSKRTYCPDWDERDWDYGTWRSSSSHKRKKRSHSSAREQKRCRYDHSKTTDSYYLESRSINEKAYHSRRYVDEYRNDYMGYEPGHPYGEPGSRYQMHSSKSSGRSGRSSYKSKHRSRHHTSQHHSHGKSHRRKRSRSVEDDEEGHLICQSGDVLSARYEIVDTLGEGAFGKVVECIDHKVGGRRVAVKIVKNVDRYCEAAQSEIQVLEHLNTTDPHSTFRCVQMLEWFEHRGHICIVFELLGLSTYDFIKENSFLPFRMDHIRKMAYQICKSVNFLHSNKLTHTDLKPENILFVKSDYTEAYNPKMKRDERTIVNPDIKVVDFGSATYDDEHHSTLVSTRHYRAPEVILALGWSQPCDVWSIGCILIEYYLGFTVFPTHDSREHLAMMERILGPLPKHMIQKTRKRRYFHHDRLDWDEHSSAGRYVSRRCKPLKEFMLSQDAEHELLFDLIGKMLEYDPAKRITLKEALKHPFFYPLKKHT

[14] = target: T4, Dual specificity tyrosine-phosphorylation-regulated kinase 3 (Homo sapiens, UniProt O43781); assay: Inhibition of GST-fused human recombinant DYRK3 expressed in Escherichia coli using GRSRSRSRSRSR peptide as substrate incubated for 30 mins in presence of ATP by scintillation counting method
T4 sequence (O43781 whole entry): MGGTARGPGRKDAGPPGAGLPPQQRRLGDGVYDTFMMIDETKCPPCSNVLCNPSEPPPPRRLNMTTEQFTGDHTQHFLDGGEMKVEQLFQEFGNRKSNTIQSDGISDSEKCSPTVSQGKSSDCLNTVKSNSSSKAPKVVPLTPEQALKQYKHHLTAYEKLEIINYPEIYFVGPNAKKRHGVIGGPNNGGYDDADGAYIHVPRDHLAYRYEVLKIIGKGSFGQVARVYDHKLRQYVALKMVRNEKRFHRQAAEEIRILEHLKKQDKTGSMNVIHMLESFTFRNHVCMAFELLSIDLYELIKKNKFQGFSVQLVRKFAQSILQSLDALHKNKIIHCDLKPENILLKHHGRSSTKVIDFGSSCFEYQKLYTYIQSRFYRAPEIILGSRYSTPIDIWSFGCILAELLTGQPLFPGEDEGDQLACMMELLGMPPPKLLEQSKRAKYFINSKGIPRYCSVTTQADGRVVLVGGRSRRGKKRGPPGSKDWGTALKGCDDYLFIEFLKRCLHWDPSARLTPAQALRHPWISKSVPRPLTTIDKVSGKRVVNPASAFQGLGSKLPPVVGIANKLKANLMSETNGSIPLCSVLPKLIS

HT-22 [15] = assay: Neuroprotective activity against glutamate-induced cell death in mouse HT-22 cells treated for 24 hrs by MTS assay; type: functional, cell-based; conditions: HT-22, 24 h
[16] = target: T1, Dual specificity tyrosine-phosphorylation-regulated kinase 1A; assay: Inhibition of DYRK1A in human SH-SY5Y overexpressing Tau4R cells assessed as phosphorylated Tau Thr212 residue level at 10 uM incubated for 6 hrs by western blot analysis relative to control; type: cell-based
Cannabinoid receptor 1 [17] = target: T3, Cannabinoid receptor 1; assay: Antagonist activity at CP-55940-activated CB1 receptor (unknown origin) by beta-arrestin assay; type: functional

| Structure (SMILES) | Activity [1] | IC50 (Casein kinase 2) | pIC50 [2] | Activity (U2OS) | pIC50 [3] | deltaCT (HT-22 [4]) | IC50 [5] | pIC50 [6] | EC50 at 24 h [7] | pIC50 [8] | pIC50 [9] | pIC50 [10] | Activity (Cannabinoid receptor 1 [11]) | pIC50 [12] | pIC50 [13] | pIC50 [14] | pEC50 (HT-22 [15]) | inhibition [16] | pIC50 (Cannabinoid receptor 1 [17]) | Activity (Cannabinoid receptor 1 [11]; filed as antagonist) | other results |
| --- | --- | --- | --- | --- | --- | --- | --- | --- | --- | --- | --- | --- | --- | --- | --- | --- | --- | --- | --- | --- | --- |
| CNC1=N/C(=C\c2ccc3c(c2)OCO3)C(=O)N1 | Non-Toxic | 1800 nM | 6.28 | 4.9 | 7.03 | 1 | 6200 nM | 6.80 | > 20000 nM | 6.89 | 6.30 | 5.92 | -14.7% | 5.92 | 6.85 | 6.32 | – | – | – | – | – |
| O=C1NC(Nc2ccc(-c3ccccc3)cc2)=N/C1=C\c1ccc2c(c1)OCO2 | Non-Toxic | – | < 5.00 | 6.8 | 5.28 | – | – | 5.09 | – | 5.38 | < 5.00 | – | 36.8% | – | < 5.00 | – | < 4.70 | -5.1% | – | – | – |
| CN1C(=O)/C(=C/c2ccc3c(c2)OCO3)N=C1N [LEUCETTAMINE B] | Non-Toxic | – | 6.03 | 4.3 | – | 1.14 | 5000 nM | – | – | 6.37 | – | < 5.00 | 9.5% | 5.22 | 6.85 | 5.89 | – | – | < 5.00 | – | – |
| O=C1NC(Nc2ccc(O)cc2)=N/C1=C\c1ccc2c(c1)OCO2 | – | 140 nM | 7.08 | 12 | 7.74 | 7.91 | 530 nM | 7.89 | > 20000 nM | 7.96 | 7.62 | 5.96 | -25.5% | 6.55 | 7.66 | 6.85 | 5.05 | – | – | – | – |
| O=C1NC(Nc2ccccc2)=N/C1=C\c1cccc(F)c1 | – | – | – | 5.9 | – | – | – | < 5.00 | – | – | – | < 5.00 | – | – | – | – | 5.46 | – | 6.04 | 79.5% | IC50 at 24 h [7]: > 20000 nM |
| CCCCOc1ccc(/C=C2\N=C(Nc3ccccc3)NC2=O)cc1OC | Non-Toxic | – | – | 7.6 | – | – | – | – | – | – | – | – | – | – | – | – | 5.61 | -8% | – | 54.3% | – |
| CCSC1=N/C(=C\c2ccc3c(c2)OCO3)C(=O)N1 | Non-Toxic | 600 nM | 6.92 | 5.5 | 7.64 | 0.57 | 900 nM | 7.48 | > 20000 nM | 7.49 | 7.14 | 6.47 | -7.5% | 5.85 | 7.54 | 6.80 | – | – | – | – | – |
| CCNC1=N/C(=C\c2ccc3c(c2)OCO3)C(=O)N1 | Non-Toxic | 410 nM | 6.42 | 5.6 | 7.22 | 2.64 | 2400 nM | 6.85 | – | 6.72 | 6.32 | 5.92 | -40.4% | 5.64 | 7.19 | 6.33 | – | -6% | – | – | – |
| CCCNC1=N/C(=C\c2ccc3c(c2)OCO3)C(=O)N1CCC | Non-Toxic | – | ≤ 5.00 | 5 | 5.64 | -0.32 | > 10000 nM | < 5.00 | – | < 5.00 | < 5.00 | – | -13.4% | < 5.00 | 5.52 | < 5.00 | – | -1.5% | – | – | – |
| CCCCCCc1ccc(NC2=N/C(=C\c3ccc(O)c(OC)c3)C(=O)N2)cc1 | – | – | – | 7.6 | < 5.00 | – | – | ≤ 5.00 | > 20000 nM | ≤ 5.00 | ≤ 5.00 | < 5.00 | – | – | < 5.00 | < 5.00 | 6.57 | – | 5.70 | 48.1% | – |
